Data taken from US8314112B2 (Novartis AG, priority 2008, dated 2012).

target: T1, human ALK5 (kinase domain, ALK5 T204D) (Homo sapiens, UniProt P36897, T204D); test: ALK5 kinase assay ([33P] phosphate incorporation into casein); format: biochemical; details: casein substrate, 1 μM unlabelled ATP
T1 construct: The kinase domain of human ALK5 (amino acids 200-503); made in house; host or cells: insect cells (baculovirus)
T1 sequence (P36897 200-503 T204D): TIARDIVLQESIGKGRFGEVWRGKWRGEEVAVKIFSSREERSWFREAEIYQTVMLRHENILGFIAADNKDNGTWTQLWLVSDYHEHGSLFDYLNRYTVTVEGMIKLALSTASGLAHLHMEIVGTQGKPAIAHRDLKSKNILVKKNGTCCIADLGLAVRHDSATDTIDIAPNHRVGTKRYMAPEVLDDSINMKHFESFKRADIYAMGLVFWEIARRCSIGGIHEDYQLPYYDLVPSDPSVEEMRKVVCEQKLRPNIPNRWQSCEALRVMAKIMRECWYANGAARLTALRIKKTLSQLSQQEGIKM
Procedure, shortened: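 His-tagged human ALK5 T204D kinase domain (aa 200-503, constitutively active, baculovirus/insect-cell expressed), 50 ng/well, preincubated 10 min with compound and dephosphorylated casein (200 μg/well) in Tris pH 7.4/MgCl2/MnCl2. Reaction started with 1 μM ATP plus [33P]ATP, 50 min at room temperature, EDTA-stopped; casein-bound 33P counted by scintillation after filter capture.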

Question: With `Cc1cccc(-c2nc(-c3cncc(-c4cccc(C(C)(C)N)c4)c3)c3cc[nH]c3n2)n1` [Example 85, 1-Methyl-1-(3-{5-[2-(6-methyl-pyridin-2-yl)-7H-pyrrolo[2,3-d]pyrimidin-4-yl]-pyridin-3-yl}-phenyl)-ethylamine] as the compound, how does the IC50 read?
Answer: 0.099 µM

Question: With `Cc1cccc(-c2cc(-c3cncc(-c4ccc(C(C)(C)N5CCOCC5)cc4)c3)c3cc[nH]c3n2)n1` [Example 161, 4-{5-[4-(1-Methyl-1-morpholin-4-yl-ethyl)-phenyl]-pyridin-3-yl}-6-(6-methyl-pyridin-2-yl)-1H-pyrrolo[2,3-b]pyridine] as the compound, how does the IC50 read?
Answer: 0.019 µM

Question: With `Cc1cccc(-c2cc(-c3cncc(N)c3)c3cc[nH]c3n2)n1` [Example 106, 5-[6-(6-Methyl-pyridin-2-yl)-1H-pyrrolo[2,3-b]pyridin-4-yl]-pyridin-3-ylamine] as the compound, how does the IC50 read?
Answer: 0.066 µM

Question: `Cc1cccc(-c2nc(-c3cncc(-c4ccccc4Cl)c3)c3cc[nH]c3n2)n1` [Example 33, 4-[5-(2-Chloro-phenyl)-pyridin-3-yl]-2-(6-methyl-pyridin-2-yl)-7H-pyrrolo[2,3-d]pyrimidine] was tested. Which IC50 did it give?
Answer: 0.09 µM

Question: `COC(=O)CNCc1ccc(-c2cncc(-c3cc(-c4cccc(C)n4)nc4[nH]ccc34)c2)cc1` [Example 133, (4-{5-[6-(6-methyl-pyridin-2-yl)-1H-pyrrolo[2,3-b]pyridin-4-yl]-pyridin-3-yl}-benzylamino)-acetic acid methyl ester] was tested. Which IC50 did it give?
Answer: 0.007 µM

Question: With `Cc1cccc(-c2nc(-c3cncc(-c4cccnc4)c3)c3cc[nH]c3n2)n1` [Example 22, 5-[2-(6-Methyl-pyridin-2-yl)-7H-pyrrolo[2,3-d]pyrimidin-4-yl]-[3,3′]bipyridinyl] as the compound, how does the IC50 read?
Answer: 0.044 µM

Question: For `Cc1cccc(-c2nc(-c3cncc(C(=O)NCCCO)c3)c3cc[nH]c3n2)n1` [Example 26, N-(3-Hydroxy-propyl)-5-[2-(6-methyl-pyridin-2-yl)-7H-pyrrolo[2,3-d]pyrimidin-4-yl]-nicotinamide], which IC50 is on record?
Answer: 0.465 µM

Question: Which IC50 does the source give for `COc1cncc(-c2cc(-c3cccc(C)n3)nc3[nH]ccc23)c1` [Example 47, 4-(5-Methoxy-pyridin-3-yl)-6-(6-methyl-pyridin-2-yl)-1H-pyrrolo[2,3-b]pyridine] here?
Answer: 0.028 µM

Question: For `Cc1cccc(-c2nc(-c3cncc(-c4ccc(CN5CC[C@@H](N(C)C)C5)cc4)c3)c3cc[nH]c3n2)n1` [Example 97, Dimethyl-[(R)-1-(4-{5-[2-(6-methyl-pyridin-2-yl)-7H-pyrrolo[2,3-d]pyrimidin-4-yl]-pyridin-3-yl}-benzyl)-pyrrolidin-3-yl]-amine], which IC50 is on record?
Answer: 0.008 µM

Question: With `Cc1cccc(-c2cc(-c3cncc(N4CCN(C)CC4)c3)c3cc[nH]c3n2)n1` [Example 57, 4-[5-(4-Methyl-piperazin-1-yl)-pyridin-3-yl]-6-(6-methyl-pyridin-2-yl)-1H-pyrrolo[2,3-b]pyridine] as the compound, how does the IC50 read?
Answer: 0.271 µM

Question: For `Cc1cccc(-c2cc(-c3cncc(-c4ccc([C@H](C)N)cc4)c3)c3cc[nH]c3n2)n1` [Example 127, (S)-1-(4-{5-[6-(6-Methyl-pyridin-2-yl)-1H-pyrrolo[2,3-b]pyridin-4-yl]-pyridin-3-yl}-phenyl)-ethylamine], which IC50 is on record?
Answer: 0.017 µM

Question: How did the IC50 turn out when `COC(=O)CNCc1cccc(-c2cncc(-c3nc(-c4cccc(C)n4)nc4[nH]ccc34)c2)c1` [Example 146, (3-{5-[2-(6-Methyl-pyridin-2-yl)-7H-pyrrolo[2,3-d]pyrimidin-4-yl]-pyridin-3-yl}-benzylamino)-acetic acid methyl ester] was run?
Answer: 0.027 µM

Question: `Cc1cccc(-c2cc(-c3cncc(-c4ccc(CC(=O)O)cc4)c3)c3cc[nH]c3n2)n1` [Example 157, (4-{5-[6-(6-Methyl-pyridin-2-yl)-1H-pyrrolo[2,3-b]pyridin-4-yl]-pyridin-3-yl}-phenyl)-acetic acid] was tested. Which IC50 did it give?
Answer: 0.008 µM

Question: With `Cc1cccc(-c2cc(-c3cncc(-c4cccc(CNCC(=O)O)c4)c3)c3cc[nH]c3n2)n1` [Example 130, (3-{5-[6-(6-Methyl-pyridin-2-yl)-1H-pyrrolo[2,3-b]pyridin-4-yl]-pyridin-3-yl}-benzylamino)-acetic acid] as the compound, how does the IC50 read?
Answer: 0.011 µM

Question: `CN1CCN(Cc2cccc(-c3cncc(-c4nc(-c5ccccn5)nc5[nH]ccc45)c3)c2)CC1` [Example 45, 4-{5-[3-(4-Methyl-piperazin-1-ylmethyl)-phenyl]-pyridin-3-yl}-2-pyridin-2-yl-7H-pyrrolo[2,3-d]pyrimidine] was tested. Which IC50 did it give?
Answer: 0.019 µM

Question: How did the IC50 turn out when `Cc1cccc(-c2nc(-c3cncc(-c4cccc(CN(C)CC(=O)O)c4)c3)c3cc[nH]c3n2)n1` [Example 145] was run?
Answer: 0.026 µM

Question: With `Cc1cccc(-c2nc(-c3cncc4ccccc34)c3cc[nH]c3n2)n1` [Example 29, 4-[2-(6-Methyl-pyridin-2-yl)-7H-pyrrolo[2,3-d]pyrimidin-4-yl]-isoquinoline] as the compound, how does the IC50 read?
Answer: 0.011 µM

Question: For `Cc1cccc(-c2nc(-c3cncc(-c4cccc(C5CCCN5)c4)c3)c3cc[nH]c3n2)n1` (stereo not shown) [Example 102, 2-(6-Methyl-pyridin-2-yl)-4-[5-(3-pyrrolidin-2-yl-phenyl)-pyridin-3-yl]-7H-pyrrolo[2,3-d]pyrimidine], which IC50 is on record?
Answer: 0.031 µM

Question: For `Cc1cccc(-c2cc(-c3cncc(-c4ccc(CN(C)C)cn4)c3)c3cc[nH]c3n2)n1` [Example 125, Dimethyl-{5′-[6-(6-methyl-pyridin-2-yl)-1H-pyrrolo[2,3-b]pyridin-4-yl]-[2,3′]-5-ylmethyl}-amine], which IC50 is on record?
Answer: 0.008 µM

Question: With `Cc1cccc(-c2nc(-c3cnc4ccccc4c3)c3cc[nH]c3n2)n1` [Example 28, 3-[2-(6-Methyl-pyridin-2-yl)-7H-pyrrolo[2,3-d]pyrimidin-4-yl]-quinoline] as the compound, how does the IC50 read?
Answer: 0.184 µM

Question: `CSc1cncc(-c2cc(-c3cccc(C)n3)nc3[nH]ccc23)c1` [Example 105, 6-(6-Methyl-pyridin-2-yl)-4-(5-methylsulfanyl-pyridin-3-yl)-1H-pyrrolo[2,3-b]pyridine] was tested. Which IC50 did it give?
Answer: 0.115 µM

Question: How did the IC50 turn out when `COC(=O)CN(C)Cc1ccc(-c2cncc(-c3cc(-c4cccc(C)n4)nc4[nH]ccc34)c2)cc1` [Example 152, [Methyl-(4-{5-[6-(6-methyl-pyridin-2-yl)-1H-pyrrolo[2,3-b]pyridin-4-yl]-pyridin-3-yl}-benzyl)-amino]-acetic acid methyl ester] was run?
Answer: 0.01 µM

Question: With `Cc1cccc(-c2cc(-c3cncc(-c4ccc([C@@H](C)N)cc4)c3)c3cc[nH]c3n2)n1` [Example 128, (R)-1-(4-{5-[6-(6-Methyl-pyridin-2-yl)-1H-pyrrolo[2,3-b]pyridin-4-yl]-pyridin-3-yl}-phenyl)-ethylamine] as the compound, how does the IC50 read?
Answer: 0.013 µM

Question: For `Cc1cccc(-c2nc(-c3cncc(NC(=O)CCN(C)C)c3)c3cc[nH]c3n2)n1` [Example 31, 3-Dimethylamino-N-{5-[2-(6-methyl-pyridin-2-yl)-7H-pyrrolo[2,3-d]pyrimidin-4-yl]-pyridin-3-yl}-propionamide], which IC50 is on record?
Answer: 0.085 µM

Question: With `Cc1cccc(-c2nc(-c3cncc(C(=O)NCCCN(C)C)c3)c3cc[nH]c3n2)n1` [Example 13, N-(3-Dimethylamino-propyl)-5-[2-(6-methyl-pyridin-2-yl)-7H-pyrrolo[2,3-d]pyrimidin-4-yl]-nicotinamide] as the compound, how does the IC50 read?
Answer: 0.177 µM

Question: With `Cc1cccc(-c2nc(-c3cncc(-c4cccc(CN5CCN(C)CC5)c4)c3)c3cc[nH]c3n2)n1` [Example 10, 4-{5-[3-(4-Methyl-piperazin-1-ylmethyl)-phenyl]-pyridin-3-yl}-2-(6-methyl-pyridin-2-yl)-7H-pyrrolo[2,3-d]pyrimidine] as the compound, how does the IC50 read?
Answer: 0.05 µM

Question: How did the IC50 turn out when `Cc1cccc(-c2nc(-c3cncc(-c4ccc(N5CCCCC5)cc4)c3)c3cc[nH]c3n2)n1` [Example 17, 2-(6-Methyl-pyridin-2-yl)-4-[5-(4-piperidin-1-yl-phenyl)-pyridin-3-yl]-7H-pyrrolo[2,3-d]pyrimidine] was run?
Answer: 0.929 µM

Question: For `Cc1cccc(-c2nc(-c3cncc(-c4ccc(CNCCO)cc4)c3)c3cc[nH]c3n2)n1` [Example 151], which IC50 is on record?
Answer: 0.0058 µM

Question: Which IC50 does the source give for `Cc1cccc(-c2nc(-c3cncc(-c4ccc(CNCC(=O)O)cc4)c3)c3cc[nH]c3n2)n1` [Example 150, (4-{5-[2-(6-Methyl-pyridin-2-yl)-7H-pyrrolo[2,3-d]pyrimidin-4-yl]-pyridin-3-yl}-benzylamino)-acetic acid] here?
Answer: 0.017 µM

Question: `Cc1cccc(-c2cc(-c3cncc(-c4ccc(CNCCC(=O)O)cc4)c3)c3cc[nH]c3n2)n1` [Example 140, 3-(4-{5-[6-(6-Methyl-pyridin-2-yl)-1H-pyrrolo[2,3-b]pyridin-4-yl]-pyridin-3-yl}-benzylamino)-propionic acid] was tested. Which IC50 did it give?
Answer: 0.0062 µM

Question: With `Cc1cccc(-c2nc(-c3cncc(C(=O)NCCN(C)C)c3)c3cc[nH]c3n2)n1` [Example 12, N-(2-Dimethylamino-ethyl)-5-[2-(6-methyl-pyridin-2-yl)-7H-pyrrolo[2,3-d]pyrimidin-4-yl]-nicotinamide] as the compound, how does the IC50 read?
Answer: 0.345 µM

Question: How did the IC50 turn out when `Cc1cccc(-c2nc(-c3cncc(-c4cncc(CO)c4)c3)c3cc[nH]c3n2)n1` [Example 78, {5′-[2-(6-Methyl-pyridin-2-yl)-7H-pyrrolo[2,3-d]pyrimidin-4-yl]-[3,3′]bipyridinyl-5-yl}-methanol] was run?
Answer: 0.049 µM

Question: `Cc1cccc(-c2nc(-c3cncc(-c4ccc5c(c4)CCNC5)c3)c3cc[nH]c3n2)n1` [Example 115, 6-{5-[2-(6-Methyl-pyridin-2-yl)-7H-pyrrolo[2,3-d]pyrimidin-4-yl]-pyridin-3-yl}-1,2,3,4-tetrahydro-isoquinoline] was tested. Which IC50 did it give?
Answer: 1.15 µM

Question: `Cc1cccc(-c2nc(-c3cncc(-c4ccc(CN5CC[C@H](N(C)C)C5)cc4)c3)c3cc[nH]c3n2)n1` [Example 100, Dimethyl-[(S)-1-(4-{5-[2-(6-methyl-pyridin-2-yl)-7H-pyrrolo[2,3-d]pyrimidin-4-yl]-pyridin-3-yl}-benzyl)-pyrrolidin-3-yl]-amine] was tested. Which IC50 did it give?
Answer: 0.008 µM
